The test system of the test is CEM cells HIV-1 protection, formazan growth assay. The test is described as follows: NCI AIDS Antiviral Assay. The note with it: for IC50: measured here: growth of uninfected CEM cells. The essentials: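 Five concentrations of each compound were applied to infected and uninfected human CEM cells. Protection from HIV-1 was judged from growth measured with a soluble formazan assay.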

The structures appear in SMILES notation. Active and inactive are the calls of the source.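 How the source made its calls: active means compounds giving half or more protection of infected cells from virus-caused growth loss, again on retest; inactive means the rest.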 Where a SMILES comes first, the peptide text is derived from it. [ ]: non-standard residue; d: D form. The star is where a group is joined. Iva = CC[C](C)(N)C(=O)O; Boc = CC(C)(C)OC(=O)*; X8 = C1CCC(=NO*)C1 A value given as a limit tells only on which side of the number the result lay.

Usually EC50 stands for the concentration that produces a half-maximal response. The IC50 is the midpoint of a concentration-inhibition curve.

For `CC(C)(C)C(=O)/C=C/c1cccc([N+](=O)[O-])c1`, the EC50 was above 58.9 µM and the IC50 was found to be 8.71 µM.

In the case of `CC1OC(=O)C2=C1C(=O)CC(C)(C)O2` (stereo not given), the EC50 was above 182 µM and the IC50 came to 170 µM.

Regarding `Nc1c(N=O)c(=O)n(Cc2ccccc2)c(=O)n1Cc1ccccc1`, the EC50 was above 200 µM and the IC50 stood at 11.7 µM.

Regarding `COc1cccc(/C=N/[N-]C(N)=O)c1[O-].[Cu+2].[OH3+].c1cnc2c(c1)ccc1cccnc12`, the EC50 was above 39.8 µM and the IC50 is 16.2 µM.

Regarding `COC(=O)/C=C\C(C#N)(C#N)N=Cc1ccsc1`, the EC50 is above 2 µM and the IC50 came to 0.759 µM.

In the case of `CN1C(=O)C2(Cc3cn(C45CC67SSC(CO)(C(=O)N6C4Nc4ccccc45)N(C)C7=O)c4ccccc34)SSC1(CO)C(=O)N2C` (stereo not given), the EC50 is above 0.2 µM and the IC50 is 0.00661 µM.

With `CC(=O)CC(O)(C(F)(F)Cl)C(F)(F)Cl`, the outcome was inactive.

Consider `Cc1cc2c(C(C)C)c(O)c(O)c(/C=N\O)c2c(O)c1-c1c(C)cc2c(C(C)C)c(O)c(O)c(/C=N/O)c2c1O`, for which the EC50 was above 200 µM and the IC50 was determined as 10 µM.

`C/C=C1\C[C@@H]2C(OC)Nc3cc(O)c(OC)cc3C(=O)N2C1` (stereo not given in full): the EC50 is above 813 µM and the IC50 was determined as 0.263 µM.

On to `COCCOCc1nc(C#N)c(N)o1`, for which the outcome was inactive.

Consider `N#CCCN(c1ccc(C=Nc2cccc([N+](=O)[O-])c2)cc1)S(=O)(=O)c1ccccc1`, for which the outcome was inactive.

Turning to `Nc1ccc(S(=O)(=O)Cc2ccc(C(=O)O)cc2[N+](=O)[O-])cc1`, the EC50 was above 107 µM and the IC50 was above 107 µM.

In the case of `Cc1c2[nH]c(c1CCC(=O)O)/C=c1\[n-]/c(c(C)c1CCC(=O)O)=C\c1[n-]c(c(C)c1C(C)O)/C=c1\[nH]/c(c(C)c1C(C)O)=C\2.[Cl][Pt+2][Cl]` (stereo not given), the EC50 was above 20.9 µM and the IC50 was 14.5 µM.

With `CCOP(=O)(OCC)/C(C#N)=C/c1ccco1`, the EC50 was 69.2 µM and the IC50 was above 200 µM.

For the molecule `O=C(O)Cc1[nH]c(=O)[nH]c(=O)c1CCl`, the EC50 was above 100 µM and the IC50 was above 100 µM.

Regarding `CC(C)COC(=O)N1N=NC2C3OC(CC3=O)C21` (stereo not given), the EC50 was above 977 µM and the IC50 was above 977 µM.

With `c1ccc([C@H]2CN3CCSC3=N2)cc1`, the EC50 is above 200 µM and the IC50 was above 200 µM.

Take `CC(C)=CCC[C@@H](C)C1=C(O)C(N[C@H](C)c2ccccc2)=C(C)C(=O)C1=O`: the EC50 was above 200 µM and the IC50 was 1.66 µM.

Turning to `CSc1ncc2c(C#N)c3n(C)c4ccccc4n3c(=O)c2n1`, the EC50 was above 100 µM and the IC50 was above 100 µM.

For the molecule `N=c1nnc(=O)c2c(s1)-n1ncc(C(=O)O)c1NN2`, the EC50 is above 81.3 µM and the IC50 is above 81.3 µM.

With `COc1ccc(-c2nc3c(=O)n(C)c(=O)n(C)c3nc2-c2ccc(OC)cc2)cc1`, the EC50 is above 200 µM and the IC50 was 195 µM.

For the molecule `CC(CN(C)C)C(=O)c1ccccc1` (stereo not given), the EC50 is above 912 µM and the IC50 came to 55 µM.

As for `N#CCC(=O)N/N=C(/C(=O)Nc1ccccc1)C1C(=O)N(c2ccccc2)N=C1N` (stereo not given), the EC50 is above 170 µM and the IC50 was above 170 µM.

In the case of `CSc1nc(C)cc(=O)n1C1OC(COC(C)=O)C(OC(C)=O)C(OC(C)=O)C1OC(C)=O` (stereo not given), the EC50 was above 200 µM and the IC50 was above 200 µM.

As for `N#CNC(=NCCO)NCCO`, the EC50 was above 525 µM and the IC50 was above 525 µM.

Take `CCCCCCCCCCCCN(CCCCCCCCCCCC)CC(=O)Nc1ccc(S(=O)(=O)c2ccc(NC(=O)CN(CCCCCCCCCCCC)CCCCCCCCCCCC)cc2)cc1`: the EC50 is above 50.1 µM and the IC50 was 2.57 µM.

Turning to `O=C1/C(=C/c2ccc(O)cc2)CCc2ccc([N+](=O)[O-])cc21`, the EC50 is above 200 µM and the IC50 worked out at 81.3 µM.

For the molecule `c1ccc(C2N=C(c3ccccn3)C(c3ccccn3)=NC2c2ccccc2)cc1` (stereo not given), the EC50 is above 9.77 µM and the IC50 was above 9.77 µM.

Take `CC(C)c1cccc(C(C)C)c1N1C(=O)C(=O)C(c2nc3ccccc3o2)C(=O)C1=O`: the outcome was inactive.

Consider `[Ni+2].[O-]/C(=N\N=C/c1ccccc1F)c1ccncc1.[O-]/C(=N\N=C\c1ccccc1F)c1ccncc1`, for which the EC50 was above 100 µM and the concentration for half-maximal inhibition (IC50) was above 100 µM.

On to `C(/C=C\c1ccccc1)=Nc1ccccc1`, for which the EC50 is above 34.7 µM and the IC50 was above 34.7 µM.

In the case of `Cc1nc2cc(F)c(F)cc2[nH]c1=O`, the EC50 is above 200 µM and the IC50 is 174 µM.

On to `CC(C)c1ccc(C(c2ccc(OCC(=O)O)cc2)c2ccc(C(C)C)cc(=O)c2O)c(O)c(=O)c1`, for which the result was inactive.

Turning to `CC(CO)(CO)N1C(=O)C2C3C=CC(C3)C2C1=O` (stereo not given), the EC50 is above 200 µM and the IC50 is above 200 µM.

For `COc1ccc(S(=O)(=O)N[C@H](C(=O)O)c2ccccc2)cc1`, the result was inactive.

Take `O=C1CCCCC/C1=C\c1ccc([N+](=O)[O-])cc1`: the EC50 is above 200 µM and the concentration for half-maximal inhibition (IC50) came to 25.7 µM.

Consider `O=c1oc2c(-c3ccccc3)cccc2c(O)c1-c1ccccc1`, for which the EC50 is above 200 µM and the IC50 was determined as 85.1 µM.

As to `N#CC1=C(O)NC(O)=C(C#N)C1c1c(Cl)cccc1Cl`, the EC50 was above 427 µM and the IC50 worked out at 27.5 µM.

With `O=C1NC(Cc2ccc(O)cc2)C(=O)N2CCCC12` (stereo not given), the EC50 was above 955 µM and the IC50 is above 955 µM.

On to `COc1ccc(-c2c3c([nH]c(=S)c2C#N)CC(C)(C)CC3=O)cc1`, for which the outcome was inactive.

As for `CCOC(=O)/C(C#N)=C/c1ccc(C#N)cc1`, the EC50 was above 22.9 µM and the IC50 was above 22.9 µM.

In the case of `O=C(CN(C(=O)OC12CC3CC(CC(C3)C1)C2)C(=O)OC12CC3CC(CC(C3)C1)C2)Oc1ccc([N+](=O)[O-])cc1`, the EC50 is above 200 µM and the IC50 was found to be 9.77 µM.

`COc1ccc(CCNCc2cccc(OC)c2OC)cc1OC`: the outcome was inactive.

For the molecule `CC(=O)C(=Cc1cccc(F)c1)C(C)=O`, the EC50 is above 126 µM and the IC50 came to 64.6 µM.

Take `CCOC(=O)C1C2CCC(O2)C1C(=O)O` (stereo not given): the EC50 was above 200 µM and the IC50 was 21.4 µM.

As to `O=[N+]([O-])c1cc(I)cc(/C=N/NS(=O)(=O)c2ccc(Cl)cc2)c1O`, the EC50 was above 372 µM and the IC50 worked out at 66.1 µM.

`O=[N+]([O-])c1cc(SSc2ccc(Cl)c([N+](=O)[O-])c2)ccc1Cl`: the EC50 was above 60.3 µM and the IC50 was 13.2 µM.

For the molecule `CCC(C)(NC(=O)C(C)NC(=O)OC(C)(C)C)C(=O)NC(C)C(=O)NC(C)(CC)C(=O)ON=C1CCCC1` (stereo not given) (Boc-A[Iva]A[Iva]-X8; configuration not given here), the EC50 was above 200 µM and the IC50 amounted to 83.2 µM.

With `COc1cccc(/C=C(\C#N)C(=O)O)c1`, the EC50 is above 1230 µM and the IC50 came to 158 µM.

As for `CCOC(=O)c1nc2ccc(C(F)(F)F)cc2nc1Oc1ccc(OC)cc1`, the EC50 was above 200 µM and the IC50 was above 200 µM.

With `COC(=O)c1nc(-c2ccc(Cl)c(Cl)c2)nc2ccc(Cl)cc12`, the outcome was inactive.

On to `COc1c(OC(C)=O)c(OC(C)=O)cc2c1-c1ccc(OC)c(=O)cc1C(NC(C)=O)CC2` (stereo not given), for which the EC50 was above 0.2 µM and the IC50 stood at 0.0115 µM.
